{"source": "patent US20080075796A1", "about": "“Compositions and Methods for Controlling Insects” (TyraTech, Inc., priority 2003, published 2008)", "key": {"Or43a receptor [1]": {"molecular_target": "T1, Or43a receptor (Drosophila melanogaster, UniProt P81917, L154V)", "T1 construct": "His (from vector pAc5.1/V5-His B) (C); expressed in transfected cells", "T1 sequence (P81917 whole entry L154V)": "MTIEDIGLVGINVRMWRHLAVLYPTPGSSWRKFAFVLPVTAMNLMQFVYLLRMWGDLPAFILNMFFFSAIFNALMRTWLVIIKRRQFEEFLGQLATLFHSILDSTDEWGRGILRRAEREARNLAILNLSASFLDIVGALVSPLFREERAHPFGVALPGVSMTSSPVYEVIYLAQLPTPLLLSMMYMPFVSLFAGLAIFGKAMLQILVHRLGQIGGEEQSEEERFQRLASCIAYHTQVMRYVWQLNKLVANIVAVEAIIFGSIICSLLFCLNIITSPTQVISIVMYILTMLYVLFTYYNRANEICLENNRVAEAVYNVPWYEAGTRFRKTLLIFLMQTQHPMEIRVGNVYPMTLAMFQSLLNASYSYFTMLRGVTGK", "test": "cAMP production in Schneider cells expressing Or43a receptor", "assay_type": "cell-based", "description": "Cells are grown on dishes and the media changed the day before the treatment. […] About 20 mL of insect saline is added, and cells are harvested by gentle scraping. An aliquot of the cells is counted by hemocytometer, and the cells are then centrifuged for about 5 minutes at about 1000 RPM. Cells are resuspended to give about 3×10^6 cells per mL. IBMX is added to about 200 μM. Then about 1 mL of cell suspension is aliquoted for treatment. Forskolin (cAMP inducing agent), tyramine or different composition candidates are added, and the cells are incubated at about 27° C. for about 10 minutes.\n(§1) Treated cells are centrifuged at about 13000 g for about 10 seconds. The solution is aspirated and about 1 mL of about −20° C. 70% ethanol is added. The cell pellet is disrupted by vortexing and the samples placed at about −20° C. overnight. Following the ethanol extraction, cellular debris is pelleted by centrifugation at about 13000 g for about 5 minutes. The supernatant is transferred to a tube and lyophilized to dryness in a rotary speed-vac. The resulting extract is resuspended in about 100 μL TE and used for the cAMP assay.\n(§2) The cAMP assay is based on competition binding between endogenous cAMP and ^3H-cAMP to a cAMP binding protein. The ^3H-cAMP Biotrak system (Amersham Biosciences) is used for this assay as per the manufacturer's instructions. Briefly, about 50 μL of the cellular extract is incubated with about 50 μL ^3H-cAMP and about 100 μL cAMP binding protein in an ice bath for about 2-4 hours. Charcoal (about 100 μL) is then added and the solution centrifuged for about 3 minutes at about 4° C. About 200 μL of the reaction mixture is removed and levels of ^3H-cAMP are determined by scintillation counting.\nAs such, the cells expressing olfactory receptors have a functionally active cAMP cascade."}, "Or83b receptor": {"molecular_target": "T2, Or83b receptor (Drosophila melanogaster, UniProt Q9VNB5)", "T2 construct": "His (from vector pAc5.1/V5-His B) (C); expressed in transfected cells", "T2 sequence (Q9VNB5 1-486)": "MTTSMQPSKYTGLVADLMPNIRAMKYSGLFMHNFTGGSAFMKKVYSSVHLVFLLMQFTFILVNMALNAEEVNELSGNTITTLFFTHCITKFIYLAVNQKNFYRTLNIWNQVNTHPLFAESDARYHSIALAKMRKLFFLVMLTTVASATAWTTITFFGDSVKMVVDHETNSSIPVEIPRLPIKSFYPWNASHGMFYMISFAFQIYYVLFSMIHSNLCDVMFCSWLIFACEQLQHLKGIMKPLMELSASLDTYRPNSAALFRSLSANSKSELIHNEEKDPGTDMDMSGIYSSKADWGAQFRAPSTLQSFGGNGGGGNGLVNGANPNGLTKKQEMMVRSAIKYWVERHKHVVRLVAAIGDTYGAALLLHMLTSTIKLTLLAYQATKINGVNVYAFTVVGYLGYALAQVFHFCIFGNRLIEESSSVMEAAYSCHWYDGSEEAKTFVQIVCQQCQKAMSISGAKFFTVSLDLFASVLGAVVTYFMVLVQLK", "test": "cAMP production in Schneider cells expressing Or83b receptor", "assay_type": "cell-based", "description": "Cells are grown on dishes and the media changed the day before the treatment. When cells are approximately 95% confluent, media is aspirated and the cells are washed one time with about 5 mL of about 27° C. insect saline (170 mM NaCl, 6.0 mM KCl, 2.0 mM NaHCO3, 17.0 mM glucose, 6.0 mM NaH2PO4, 2.0 mM CaCl2, 4.0 mM MgCl2; pH 7.0). About 20 mL of insect saline is added, and cells are harvested by gentle scraping. An aliquot of the cells is counted by hemocytometer, and the cells are then centrifuged for about 5 minutes at about 1000 RPM. Cells are resuspended to give about 3×10^6 cells per mL. IBMX is added to about 200 μM. Then about 1 mL of cell suspension is aliquoted for treatment. Forskolin (cAMP inducing agent), tyramine or different composition candidates are added, and the cells are incubated at about 27° C. for about 10 minutes.\nas §1\nas §2, with “counting. Levels of endogenous cAMP from the cells are calculated using a standard curve with cold cAMP ranging from about 0 to 16 pmol per reaction.” for “counting.”\nTo ensure that the cAMP cascade in this cell model is functionally active, forskolin, a cAMP inducer, is used as standard agent. Cyclic-AMP levels are measured using the cAMP assay described above in Example 2. […]\nTo determine the effect of various plant essential oils on intracellular cAMP production and the tyramine-dependent changes of cAMP in cells expressing one of the olfactory receptors, cells from each cell model are treated with LFO (about 50 μg/ml) and BSO (about 50 μg/ml) in the presence and absence of tyramine (about 20 μM) and forskolin (about 10 μM) and intracellular cAMP is thereafter quantified using the cAMP assay described above in Example 2."}, "Or43a receptor [2]": {"molecular_target": "T1, Or43a receptor", "test": "biochemical", "assay_type": "binding", "description": "To address whether Or83b receptor and Or43a receptor contain a specific binding site for tyramine, membranes expressing Or83b receptor or Or43a receptor are prepared from cells expressing either receptor, as described above, and used for competitive binding with ^3H-tyramine. The binding assay protocol is exactly as described for cells expressing TyrR, as described above."}}, "data": [{"smiles": "NCCc1ccc(O)cc1", "note": "[tyramine]", "values": [{"measurement": "change in cAMP levels", "setting": "Or43a receptor [1]; agent alone, tyramine about 20 μM, LFO, BSO about 50 μg/ml, forskolin about 10 μM", "value": "increase in cAMP levels"}, {"measurement": "change in cAMP levels, with forskolin", "setting": "Or43a receptor [1]; plus forskolin about 10 μM", "value": "increase in cAMP levels"}, {"measurement": "increase of cAMP production beyond the effect of forskolin by itself", "setting": "Or83b receptor; forskolin-pretreated cells (about 10 μM)", "value": "10-13%"}, {"measurement": "increase in cAMP production", "setting": "Or83b receptor; tyramine about 20 μM, LFO and BSO about 50 μg/ml", "value": "approximately 34%"}, {"measurement": "Kd", "setting": "Or43a receptor [2]", "value": "~13.5", "unit": "nM"}, {"measurement": "Ki", "setting": "Or43a receptor [2]", "value": 13.5, "unit": "nM"}]}]}
